{
  "source": "patent US5856305A",
  "about": "“Peptides endowed with antiinflammatory activity” (Italfarmaco S.P.A., priority 1994, dated 1999)",
  "system": "adjuvant arthritis",
  "experiment": "adjuvant arthritis test",
  "format": "in vivo, Wistar rats",
  "settings": "for Clinical scores (± S.E.): 50 μg/rat peptide in PBS intradermally at day 4, 5 and 6 after M. tuberculosis, score 0 to 18; for Incidence of arthritis (arthritic rats/total rats): 50 μg/rat at day 4, 5 and 6",
  "protocol": "The peptide of the present invention is useful in the treatment of inflammatory pathologies of different kinds and origins, as it is shown by pharmacological test (adjuvant arthritis test) as follows.\n15 Wistar rats (C. River; weight 130-140 g) and anaesthetized with CO2, were intradermically administered (injection at the base of the tie) with 0.1 ml of a suspension of 10 mg/ml of heat-inactivated M. tuberculosis (Strain C, DT and PN; Central Vet. Labs--GB), in sterile paraffin oil. The rats were divided in 3 groups of 5 animals each, and at day 4, 5 and 6 from the above treatment, following the same method for inducing arthritis, they were administered with 50 μg/rat dose of the peptide I in 100 μl of PBS for the first group, with PBS only for the second group, while the third group was not treated. The course of the arthritis was monitored according to the following scheme of clinical scores:\nThe scores range from 0 to 4 for each paw; furthermore one additional score is assigned if there are nodules on the tie, and another futher score is assigned if ears are involved, thereby the score is 0 at minimum and 18 at maximum.",
  "data": [
    {"substance": "H-AKVNIKPLEDKILVQANEAETTTAS-OH [1-25]", "values": [
      {"measurement": "Clinical scores (± S.E.)", "setting": "day 7", "result": 0},
      {"measurement": "Clinical scores (± S.E.)", "setting": "day 8", "result": 0},
      {"measurement": "Incidence of arthritis (arthritic rats/total rats)", "setting": "day 10", "result": "1/5"},
      {"measurement": "Clinical scores (± S.E.)", "setting": "day 10", "result": "0.6 ± 0.6"},
      {"measurement": "Incidence of arthritis (arthritic rats/total rats)", "setting": "day 11", "result": "5/5"},
      {"measurement": "Clinical scores (± S.E.)", "setting": "day 11", "result": "3.8 ± 0.4"},
      {"measurement": "Incidence of arthritis (arthritic rats/total rats)", "setting": "day 12", "result": "5/5"},
      {"measurement": "Clinical scores (± S.E.)", "setting": "day 12", "result": "10.0 ± 0.7"},
      {"measurement": "Clinical scores (± S.E.)", "setting": "day 13", "result": "12.6 ± 0.6"}
    ]}
  ]
}
